Each structure is given as a SMILES string.

The target in the experiment is T1, Rac1 (Homo sapiens, UniProt P63000).
T1 construct: His (N)
The experiment is described as follows: Rac Activation AlphaScreen Assay (Rac1 AS). The note with it: Rac1 AS assay, dose leading to 50% disruption of complex; read-out: IC50. The experiment is classed as biochemical. Here is the method:
The IC50 values reported in Tables 1-6 were obtained from the Rae Activation AlphaScreen Assay (Rac1 AS) assay described in subsection 2 under the section entitled “In Vitro Assays”. “†” represents an IC50 of greater than 100 uM; “††” represents an IC50 of greater than 10 uM and less than 50 uM; and “†††” represents an IC50 of less than 10 uM. “POC” means percent of control. […] Lower POC values reflect greater inhibition. “NT” means not tested.
2. Rac Activation AlphaScreen Assay (Rac1 AS)
AlphaScreen® assays were performed in 96-well microplates in a final reaction volume of 60 μL. Recombinant His-Rac1, recombinant GST-PBD (PAK Binding Domain), donor and acceptor beads (PerkinElmer), and inhibitors were incubated in exchange buffer (20 mM Tris pH 7.5, 50 mM NaCl, 1 mM MgCl2, 1 mM EDTA, 500 nM GTPyS (guanosine 5′-[Y-thio]triphosphate)) at 37° C. Readings were performed on a Tecan M1000 pro microplate reader after 1 hour. Data was analyzed using the GraphPad Prism software (GraphPad Software, Inc.), and IC50 (dose leading to 50% disruption of complex) was calculated from the dose-response curves.
Regarding `O=C(Cc1ccc(Cl)cc1)Nc1ccc(-c2ccc3nnc(-c4ccncc4)n3n2)cc1` [Compound 7], the IC50 is greater than 100 µM. With `O=C(Cc1cccc(F)c1)Nc1ccc(-c2ccc3nnc(-c4ccncc4)n3n2)cc1` [Compound 8], the IC50 was greater than 100 µM. Then `Cc1ccc(CC(=O)Nc2ccc(-c3ccc4nnc(-c5ccncc5)n4n3)cc2)cc1C` [Compound 9], with 10 to 50 µM; and `O=C(Cc1cccc(Cl)c1)Nc1ccc(-c2ccc3nnc(-c4ccncc4)n3n2)cc1` [Compound 10], with less than 10 µM.

In the case of `Cc1cc(C)cc(CC(=O)Nc2ccc(-c3ccc4nnc(-c5ccncc5)n4n3)cc2)c1` [Compound 11], the IC50 lay in the range of 10 to 50 µM. Then `O=C(Cc1ccc(F)cc1)Nc1ccc(-c2ccc3nnc(-c4ccncc4)n3n2)cc1` [Compound 12], with less than 10 µM. With `Cc1ccccc1CC(=O)Nc1ccc(-c2ccc3nnc(-c4ccncc4)n3n2)cc1` [Compound 13], the IC50 lay in the range of 10 to 50 µM.

Turning to `O=C(Cc1cccc2ccccc12)Nc1ccc(-c2ccc3nnc(-c4ccncc4)n3n2)cc1` [Compound 15], the IC50 was less than 10 µM. As to `O=C(Cc1ccc2ccccc2c1)Nc1ccc(-c2ccc3nnc(-c4ccncc4)n3n2)cc1` [Compound 16], the IC50 lay within 10 to 50 µM. With `O=C(Cc1cccc([N+](=O)[O-])c1)Nc1ccc(-c2ccc3nnc(-c4ccncc4)n3n2)cc1` [Compound 17] the figure was 10 to 50 µM; with `O=C(Cc1cccs1)Nc1ccc(-c2ccc3nnc(-c4cccnc4)n3n2)cc1` [Compound 18], 10 to 50 µM. With `O=C(Cc1cccc2ccccc12)Nc1ccc(-c2ccc3nnc(-c4ccccn4)n3n2)cc1` [Compound 19] the figure was less than 10 µM; with `O=C(Cc1ccc2ccccc2n1)Nc1ccc(-c2ccc3nnc(-c4ccccn4)n3n2)cc1` [Compound 20], greater than 100 µM; with `O=C(Cc1ccc(Cl)nc1)Nc1ccc(-c2ccc3nnc(-c4ccccn4)n3n2)cc1` [Compound 21], 10 to 50 µM. Then `O=C(Cc1cccnc1Cl)Nc1ccc(-c2ccc3nnc(-c4ccccn4)n3n2)cc1` [Compound 22], with less than 10 µM; and `O=C(Cc1cccc(F)c1)Nc1ccc(-c2ccc3nnc(-c4cccs4)n3n2)cc1` [Compound 24], with less than 10 µM. For `COc1cccc(CC(=O)Nc2ccc(-c3ccc4nnc(-c5cccs5)n4n3)cc2)c1` [Compound 25], the IC50 was 10 to 50 µM. Then `O=C(Cc1ccc(F)cc1)Nc1ccc(-c2ccc3nnc(-c4cccs4)n3n2)cc1` [Compound 26], with less than 10 µM; and `O=C(Cc1ccc(F)cc1F)Nc1ccc(-c2ccc3nnc(-c4cccs4)n3n2)cc1` [Compound 27], with less than 10 µM. With `O=C(Cc1ccccc1Cl)Nc1ccc(-c2ccc3nnc(-c4cccs4)n3n2)cc1` [Compound 28] the figure was less than 10 µM. With `O=C(Cc1ccccc1)Nc1ccc(-c2ccc3nnc(-c4ccccn4)n3n2)cc1` [Compound 30] the figure was less than 10 µM.

On to `Cc1nnc2ccc(-c3ccc(NC(=O)Cc4ccco4)cc3)nn12` [Compound 31], for which the IC50 was greater than 100 µM. Then `O=S(=O)(Cc1ccccc1)Nc1ccc(-c2ccc3nnc(-c4ccccn4)n3n2)cc1` [Compound 33], with less than 10 µM; and `O=C(Cc1ccccc1Cl)Nc1cccc(-c2ccc3nnc(-c4cccnc4)n3n2)c1` [Compound 44], with less than 10 µM. Turning to `O=C(Cc1c[nH]c2ccccc12)Nc1cccc(-c2ccc3nnc(-c4cccnc4)n3n2)c1` [Compound 45], the IC50 is less than 10 µM. With `COc1cccc(CC(=O)Nc2cccc(-c3ccc4nnc(-c5cccnc5)n4n3)c2)c1` [Compound 46] the figure was less than 10 µM; with `O=C(Nc1cccc(-c2ccc3nnc(-c4cccnc4)n3n2)c1)c1ccc2ccccc2c1` [Compound 49], 10 to 50 µM; with `O=C(Cc1cccs1)Nc1cccc(-c2ccc3nnc(-c4cccnc4)n3n2)c1` [Compound 51], less than 10 µM. Then `O=C(Cc1ccc(Cl)cc1)Nc1cccc(-c2ccc3nnc(-c4cccnc4)n3n2)c1` [Compound 52], with less than 10 µM; and `O=S(=O)(Cc1ccc(F)cc1F)Nc1cccc(-c2ccc3nnc(-c4cccnc4)n3n2)c1` [Compound 56], with less than 10 µM; and `O=S(=O)(Cc1ccc2ccccc2c1)Nc1cccc(-c2ccc3nnc(-c4cccnc4)n3n2)c1` [Compound 57], with less than 10 µM. With `CCc1ccc(CS(=O)(=O)Nc2cccc(-c3ccc4nnc(-c5cccnc5)n4n3)c2)s1` [Compound 59] the figure was less than 10 µM.

Turning to `Cc1ccc(CS(=O)(=O)Nc2cccc(-c3ccc4nnc(-c5cccnc5)n4n3)c2)s1` [Compound 60], the IC50 is less than 10 µM.

With `O=S(=O)(Cc1ccccc1F)Nc1cccc(-c2ccc3nnc(-c4cccnc4)n3n2)c1` [Compound 62], the IC50 is less than 10 µM. For `O=S(=O)(Cc1cccc(F)c1)Nc1cccc(-c2ccc3nnc(-c4cccnc4)n3n2)c1` [Compound 63], the IC50 is less than 10 µM. Then `Cn1cc(CC(=O)Nc2cccc(-c3ccc4nnc(-c5cccnc5)n4n3)c2)c2ccccc21` [Compound 74], with less than 10 µM. With `COc1cccc(C(=O)Nc2cccc(-c3ccc4nnc(-c5ccc(C)o5)n4n3)c2)c1` [Compound 79] the figure was less than 10 µM; with `Cc1ccc(-c2nnc3ccc(-c4cccc(NC(=O)c5ccc(F)cc5)c4)nn23)o1` [Compound 80, 4-fluoro-N-(3-(3-(5-methylfuran-2-yl)-[1,2,4]triazolo[4,3-b]pyridazin-6-yl)phenyl)benzamide], less than 10 µM; with `Cc1ccc(-c2nnc3ccc(-c4cccc(NC(=O)c5ccc(F)c(Cl)c5)c4)nn23)o1` [Compound 81, 3-chloro-4-fluoro-N-(3-(3-(5-methylfuran-2-yl)-[1,2,4]triazolo[4,3-b]pyridazin-6-yl)phenyl)benzamide], less than 10 µM. With `Cc1ccc(-c2nnc3ccc(-c4cccc(NC(=O)c5cccc(Cl)c5)c4)nn23)o1` [Compound 82, 3-chloro-N-(3-(3-(5-methylfuran-2-yl)-[1,2,4]triazolo[4,3-b]pyridazin-6-yl)phenyl)benzamide] the figure was less than 10 µM. `Cc1ccc(-c2nnc3ccc(-c4cccc(NC(=O)c5cccc(Br)c5)c4)nn23)o1` [Compound 83]: the IC50 was less than 10 µM. Then `Cc1ccc(-c2nnc3ccc(-c4cccc(NC(=O)c5cccc(F)c5)c4)nn23)o1` [Compound 84], with less than 10 µM; and `Cc1ccc(-c2nnc3ccc(-c4cccc(NC(=O)c5ccc(F)c(F)c5)c4)nn23)o1` [Compound 85], with less than 10 µM; and `CSc1cc(C(=O)Nc2cccc(-c3ccc4nnc(-c5ccc(C)o5)n4n3)c2)ccc1F` [Compound 86], with less than 10 µM. Then `CCSc1cccc(C(=O)Nc2cccc(-c3ccc4nnc(-c5ccc(C)o5)n4n3)c2)c1` [Compound 87], with less than 10 µM; and `Cc1ccc(-c2nnc3ccc(-c4cccc(NC(=O)c5cccc(SC(C)C)c5)c4)nn23)o1` [Compound 88, 3-(isopropylthio)-N-(3-(3-(5-methylfuran-2-yl)-[1,2,4]triazolo[4,3-b]pyridazin-6-yl)phenyl)benzamide], with less than 10 µM; and `Cc1cccc(C(=O)Nc2cccc(-c3ccc4nnc(-c5ccc(C)o5)n4n3)c2)c1` [Compound 89], with less than 10 µM. Then `CCc1cccc(C(=O)Nc2cccc(-c3ccc4nnc(-c5ccc(C)o5)n4n3)c2)c1` [Compound 90, 3-ethyl-N-(3-(3-(5-methylfuran-2-yl)-[1,2,4]triazolo[4,3-b]pyridazin-6-yl)phenyl)benzamide], with less than 10 µM. `Cc1ccc(-c2nnc3ccc(-c4cccc(NC(=O)c5ccc(F)c(SC(C)C)c5)c4)nn23)o1` [Compound 91]: the IC50 was less than 10 µM. Then `Cc1ccc(-c2nnc3ccc(-c4cccc(NC(=O)c5ccc(F)c(C)c5)c4)nn23)o1` [Compound 92], with less than 10 µM; and `CCc1cc(C(=O)Nc2cccc(-c3ccc4nnc(-c5ccc(C)o5)n4n3)c2)ccc1F` [Compound 93, 3-ethyl-4-fluoro-N-(3-(3-(5-methylfuran-2-yl)-[1,2,4]triazolo[4,3-b]pyridazin-6-yl)phenyl)benzamide], with less than 10 µM; and `Cc1ccc(-c2nnc3ccc(-c4cccc(NC(=O)c5ccc(F)c(Br)c5)c4)nn23)o1` [Compound 94], with less than 10 µM.

Regarding `COc1cccc(C(=O)Nc2cccc(-c3ccc4nnc(-c5cncs5)n4n3)c2)c1` [Compound 98], the IC50 is less than 10 µM. Then `O=C(Nc1cccc(-c2ccc3nnc(-c4cncs4)n3n2)c1)c1ccc(F)cc1` [Compound 99, 4-fluoro-N-(3-(3-(thiazol-5-yl)-[1,2,4]triazolo[4,3-b]pyridazin-6-yl)phenyl)benzamide], with less than 10 µM; and `Cc1ccc(-c2nnc3ccc(-c4cccc(NS(=O)(=O)Cc5ccc(F)cc5F)c4)nn23)o1` [Compound 106], with less than 10 µM. Then `COc1ccc(CS(=O)(=O)Nc2cccc(-c3ccc4nnc(-c5cccnc5)n4n3)c2)cc1` [Compound 107], with less than 10 µM. With `COc1ccc(CS(=O)(=O)Nc2cccc(-c3ccc4nnc(-c5cccnc5)n4n3)c2)c(OC)c1` [Compound 108] the figure was less than 10 µM; with `Cc1ccc(-c2nnc3ccc(-c4cccc(NC(=O)c5cnco5)c4)nn23)o1` [Compound 109], less than 10 µM; with `Cc1ccc(-c2nnc3ccc(-c4cccc(NC(=O)c5ccc(F)c(CCC(C)C)c5)c4)nn23)o1` [Compound 110], less than 10 µM.

As a reminder, the IC50 is the point on the concentration scale where inhibition reaches its midpoint.

The values above are taken from patent US20250235453A1, “TRIAZOLOPYRIDAZINE COMPOUNDS USEFUL AS RAC1 INHIBITORS” (Revere Pharmaceuticals, priority 2021, published 2025).
